Reference: PubChem BioAssay (NCI)
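Following 48 hours of exposure in 96-well plates, responses at five concentrations were used to interpolate endpoints linearly. The concentration for 50% growth inhibition is given as GI50. The concentration for full growth arrest is given as TGI.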

Legend:
Assay in all cases: NCI tumour cell line growth inhibition, 48 h
[1] = test system: A498 renal
[2] = test system: A549 NSCLC
[3] = test system: ACHN renal
[4] = test system: CCRF-CEM leukemia
[5] = test system: COLO 205 colon
[6] = test system: EKVX NSCLC
[7] = test system: HCC-2998 colon
[8] = test system: HCT-15 colon
[9] = test system: HL-60(TB) leukemia
[10] = test system: HOP-62 NSCLC
[11] = test system: HOP-92 NSCLC
[12] = test system: HS 578T breast
[13] = test system: HT29 colon
[14] = test system: IGROV1 ovarian
[15] = test system: K-562 leukemia
[16] = test system: KM12 colon
[17] = test system: LOX IMVI melanoma
[18] = test system: MALME-3M melanoma
[19] = test system: MCF7 breast
[20] = test system: MDA-MB-231 breast
[21] = test system: MDA-MB-435
[22] = test system: MOLT-4 leukemia
[23] = test system: NCI-H226 lung
[24] = test system: NCI-H23 lung
[25] = test system: NCI-H460 lung
[26] = test system: NCI-H522 lung
[27] = test system: NCI/ADR-RES ovarian
[28] = test system: OVCAR-3 ovarian
[29] = test system: OVCAR-4 ovarian
[30] = test system: OVCAR-5 ovarian
[31] = test system: OVCAR-8 ovarian
[32] = test system: PC-3 prostate
[33] = test system: RPMI-8226 leukemia
[34] = test system: RXF 393 renal
[35] = test system: SF-268 CNS
[36] = test system: SF-295 CNS
[37] = test system: SF-539 CNS
[38] = test system: SK-MEL-2 melanoma
[39] = test system: SK-MEL-28 melanoma
[40] = test system: SK-MEL-5 melanoma
[41] = test system: SK-OV-3 ovarian
[42] = test system: SN12C renal
[43] = test system: SNB-19 CNS
[44] = test system: SNB-75 CNS
[45] = test system: SR leukemia
[46] = test system: SW-620 colon
[47] = test system: T-47D breast
[48] = test system: TK-10 renal
[49] = test system: U251 CNS
[50] = test system: UACC-257 melanoma
[51] = test system: UACC-62 melanoma
[52] = test system: UO-31 renal

CC1=CC(=O)CC(C)(C)[C@@]1(O)/C=C/C(C)=C\C(=O)O
GI50 [1]: 0.115 µM | TGI [1]: 0.374 µM | GI50 [2]: 0.408 µM | TGI [2]: 3.5 µM | GI50 [3]: 0.489 µM | TGI [3]: 2.38 µM | GI50 [4]: 0.196 µM | TGI [4]: > 50 µM | GI50 [5]: 0.204 µM | TGI [5]: 0.95 µM | GI50 [6]: 0.25 µM | TGI [6]: 2.29 µM | GI50 [7]: 0.139 µM | TGI [7]: 0.43 µM | GI50 [8]: 0.153 µM | TGI [8]: 0.777 µM | GI50 [9]: 0.127 µM | TGI [9]: 0.309 µM | GI50 [10]: 0.159 µM | TGI [10]: 1.05 µM | GI50 [11]: 0.566 µM | TGI [11]: 2.98 µM | GI50 [12]: 0.209 µM | TGI [12]: 1.57 µM | GI50 [13]: 0.157 µM | TGI [13]: 0.585 µM | GI50 [14]: 0.157 µM | TGI [14]: 0.946 µM | GI50 [15]: 0.164 µM | TGI [15]: > 50 µM | GI50 [16]: 0.21 µM | TGI [16]: 1.56 µM | GI50 [17]: 0.129 µM | TGI [17]: 0.432 µM | GI50 [18]: 0.104 µM | TGI [18]: 0.329 µM | GI50 [19]: 0.165 µM | TGI [19]: 1.36 µM | GI50 [20]: 1.14 µM | TGI [20]: 3.55 µM | GI50 [21]: 0.182 µM | TGI [21]: 0.738 µM | GI50 [22]: 0.152 µM | TGI [22]: > 50 µM | GI50 [23]: 0.148 µM | TGI [23]: 0.499 µM | GI50 [24]: 0.376 µM | TGI [24]: 2.23 µM | GI50 [25]: 0.132 µM | TGI [25]: 0.336 µM | GI50 [26]: 0.115 µM | TGI [26]: 0.359 µM | GI50 [27]: 1.01 µM | TGI [27]: 3.76 µM | GI50 [28]: 0.148 µM | TGI [28]: 0.478 µM | GI50 [29]: 0.131 µM | TGI [29]: 0.464 µM | GI50 [30]: 0.84 µM | TGI [30]: 2.98 µM | GI50 [31]: 0.527 µM | TGI [31]: 3.15 µM | GI50 [32]: 0.347 µM | TGI [32]: 3.46 µM | GI50 [33]: 0.174 µM | TGI [33]: 0.644 µM | GI50 [34]: 0.114 µM | TGI [34]: 0.327 µM | GI50 [35]: 0.793 µM | TGI [35]: 2.82 µM | GI50 [36]: 0.749 µM | TGI [36]: 2.32 µM | GI50 [37]: 0.206 µM | TGI [37]: 1.29 µM | GI50 [38]: 0.923 µM | TGI [38]: 2.31 µM | GI50 [39]: 0.172 µM | TGI [39]: 0.669 µM | GI50 [40]: 0.111 µM | TGI [40]: 0.252 µM | GI50 [41]: 0.284 µM | TGI [41]: 2.22 µM | GI50 [42]: 0.894 µM | TGI [42]: 3.9 µM | GI50 [43]: 0.254 µM | TGI [43]: 2.28 µM | GI50 [44]: 0.517 µM | TGI [44]: 1.13 µM | GI50 [45]: 0.155 µM | TGI [45]: > 50 µM | GI50 [46]: 0.285 µM | TGI [46]: 2.2 µM | GI50 [47]: 0.34 µM | TGI [47]: 2.22 µM | GI50 [48]: 0.471 µM | TGI [48]: 2.74 µM | GI50 [49]: 0.224 µM | TGI [49]: 2.26 µM | GI50 [50]: 0.534 µM | TGI [50]: 2.52 µM | GI50 [51]: 0.545 µM | TGI [51]: 1.37 µM | GI50 [52]: 0.608 µM | TGI [52]: 2.3 µM
